The values below come from US20230159509A1 (Amathus Therapeutics, Inc., priority 2020, published 2023).

For the experiment, the target named is T1, TRAP1 enzyme (Homo sapiens, UniProt Q12931).
T1 construct: 150 nM Trap1 enzyme was incubated with various concentrations of the test compound
T1 sequence (Q12931 60-704): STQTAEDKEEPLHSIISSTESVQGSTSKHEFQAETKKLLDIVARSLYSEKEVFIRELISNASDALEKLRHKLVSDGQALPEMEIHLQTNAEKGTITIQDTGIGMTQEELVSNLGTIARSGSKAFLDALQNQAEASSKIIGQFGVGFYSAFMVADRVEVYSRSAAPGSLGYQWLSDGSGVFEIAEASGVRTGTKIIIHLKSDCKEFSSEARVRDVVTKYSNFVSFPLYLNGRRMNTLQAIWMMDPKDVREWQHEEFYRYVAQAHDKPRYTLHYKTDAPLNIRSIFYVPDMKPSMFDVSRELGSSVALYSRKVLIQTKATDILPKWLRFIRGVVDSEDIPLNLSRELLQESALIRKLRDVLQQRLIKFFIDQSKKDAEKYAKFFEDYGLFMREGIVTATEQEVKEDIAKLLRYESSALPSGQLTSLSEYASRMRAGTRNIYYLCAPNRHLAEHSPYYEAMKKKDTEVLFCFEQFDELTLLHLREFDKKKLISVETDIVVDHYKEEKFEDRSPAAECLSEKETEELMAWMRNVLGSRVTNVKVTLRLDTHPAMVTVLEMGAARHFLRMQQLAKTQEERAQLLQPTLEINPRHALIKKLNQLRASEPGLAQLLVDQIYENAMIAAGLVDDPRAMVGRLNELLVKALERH
Description: ADP Glo assay of TRAP1 ATPase activity. The experiment is classed as biochemical. As to conditions: for EC50: concentration for half maximal activation, read-out: ADP GLO DRC: GeoMean EC50; for Emax: maximal percent activation, read-out: ADP GLO DRC: Mean Emax. The procedure:
Potency of test compounds to modulate the ATPase activity of TRAP1 enzyme was evaluated using ADP Glo assay. The assay is based on quantification of the ADP generated from ATP in the ATPase reaction. The assay is performed in two steps; first, after the ATPase reaction an equal volume of ADP-Glo™ Reagent is added to terminate the ATPase reaction and deplete the remaining ATP. Second, the Kinase Detection Reagent is added to simultaneously convert ADP to ATP and allow the newly synthesized ATP to be measured using a luciferase/luciferin reaction.
All the assays were carried out in a 384-well Proxiplate. The buffer used was 25 mM Pipes pH-7.5, 40 mM KCl, 0.05 mM MgCl2, 0.025% BSA, 0.316 mM EGTA, 0.003% Empigen, 0.01% Igepal. 150 nM Trap1 enzyme was incubated with various concentrations of the test compound (0.79 μM-100 μM) at 37° C. for 30 mins (except in blank wells). 20 μM ATP was added to each well to start the reaction. The plate was spun for 1 min at 1200 rpm and then incubated at 37° C. for 60 mins. 5 μl of ADP Glo reagent was added to all the wells and spun the plate for 1 min at 1200 rpm and kept it on a shaker at ambient temperature for 60 mins. 10 μl of kinase detection mix was added to all the wells and the plate was read for Luminescence at 495 nm. The amount of ADP released was estimated from ATP/ADP standard curve generated at the same experimental conditions. Emax (Maximal percent activation) and EC50 (concentration for half maximal activation) were estimated by fitting the dose response data to a sigmoidal curve fitting equation using Graphpad Prism software V. 8.
(ADP-Glo turns the ADP formed in a reaction into a luminescent signal.)

On to `COc1ncc(NC(=O)c2csc(-c3ccccc3)n2)cc1S(=O)(=O)Nc1ccc(Cl)cn1` [compound 1385, N-(5-(N-(5-chloropyridin-2-yl)sulfamoyl)-6-methoxypyridin-3-yl)-2-phenylthiazole-4-carboxamide], for which the EC50 was in the range of 10 to 20 µM and the Emax lay within 160 to 199%.

For the molecule `COc1cccc(OC)c1NS(=O)(=O)c1cc(NC(=O)c2csc(-c3ccccc3)n2)cnc1OC` [compound 1386, N-(5-(N-(2,6-dimethoxyphenyl)sulfamoyl)-6-methoxypyridin-3-yl)-2-phenylthiazole-4-carboxamide], the EC50 is < 10 µM and the maximal response (Emax) is 200 to 300%.

With `COc1ncc(NC(=O)c2csc(-c3ccccc3)n2)cc1S(=O)(=O)Nc1c(C)cc(Cl)cc1C` [compound 1388, N-(5-(N-(4-chloro-2,6-dimethylphenyl)sulfamoyl)-6-methoxypyridin-3-yl)-2-phenylthiazole-4-carboxamide], the EC50 was in the range of 10 to 20 µM and the Emax was in the range of 119 to 159%.

As to `COc1ncc(NC(=O)c2csc(-c3ccccc3)n2)cc1S(=O)(=O)Nc1c(C)cc(F)cc1C` [compound 1389, N-(5-(N-(4-fluoro-2,6-dimethylphenyl)sulfamoyl)-6-methoxypyridin-3-yl)-2-phenylthiazole-4-carboxamide], the concentration for a half-maximal effect (EC50) is < 10 µM and the Emax fell in the range of 119 to 159%.

For the molecule `Cc1cnc(NC(=O)c2ncc(-c3ccccc3)o2)cc1S(=O)(=O)Nc1ccc(Cl)cc1` [compound 1390, N-(4-(N-(4-chlorophenyl)sulfamoyl)-5-methylpyridin-2-yl)-5-phenyloxazole-2-carboxamide], the EC50 fell in the range of 10 to 20 µM and the Emax lay within 160 to 199%.

Consider `CCc1cccc(C)c1NS(=O)(=O)c1cc(NC(=O)c2csc(-c3ccccc3)n2)cnc1OC` [compound 1393, N-(5-(N-(2-ethyl-6-methylphenyl)sulfamoyl)-6-methoxypyridin-3-yl)-2-phenylthiazole-4-carboxamide], for which the EC50 was < 10 µM and the Emax fell in the range of 119 to 159%.

In the case of `COc1ncc(NC(=O)c2cccc3ncn(C)c23)cc1S(=O)(=O)Nc1c(C)cccc1C` [compound 1394, N-(5-(N-(2,6-dimethylphenyl)sulfamoyl)-6-methoxypyridin-3-yl)-1-methyl-1H-benzo[d]imidazole-7-carboxamide], the EC50 lay in the range of 20 to 100 µM and the Emax lay within 160 to 199%.

Consider `COc1ncc(NC(=O)c2cn(C)c3ncccc23)cc1S(=O)(=O)Nc1c(C)cccc1C` [compound 1395, N-(5-(N-(2,6-dimethylphenyl)sulfamoyl)-6-methoxypyridin-3-yl)-1-methyl-1H-pyrrolo[2,3-b]pyridine-3-carboxamide], for which the EC50 lay in the range of 20 to 100 µM and the Emax was in the range of 200 to 300%.

In the case of `COc1ncc(NC(=O)c2scc(C)c2Cl)cc1S(=O)(=O)Nc1c(C)cccc1C` [compound 1398], the EC50 was in the range of 10 to 20 µM and the Emax fell in the range of 160 to 199%.

For `COc1ncc(NC(=O)c2ccc3nc(C)sc3c2)cc1S(=O)(=O)Nc1c(C)cccc1C` [compound 1400, N-(5-(N-(2,6-dimethylphenyl)sulfamoyl)-6-methoxypyridin-3-yl)-2-methylbenzo[d]thiazole-6-carboxamide], the EC50 lay within 10 to 20 µM and the Emax is 200 to 300%.

As for `COc1ncc(NC(=O)c2cccc(-c3noc(C)n3)c2)cc1S(=O)(=O)Nc1c(C)cccc1C` [compound 1401, N-(5-(N-(2,6-dimethylphenyl)sulfamoyl)-6-methoxypyridin-3-yl)-3-(5-methyl-1,2,4-oxadiazol-3-yl)benzamide], the EC50 is 10 to 20 µM and the Emax lay within 160 to 199%.

With `COc1ncc(NC(=O)c2ccc(Cn3cc(Cl)cn3)cc2)cc1S(=O)(=O)Nc1c(C)cccc1C` [compound 1402, 4-((4-chloro-1H-pyrazol-1-yl)methyl)-N-(5(N (2,6dimethylphenyl)sulfamoyl)-6-methoxypyridin-3-yl)benzamide], the EC50 was 10 to 20 µM and the Emax is 160 to 199%.

Consider `COc1ncc(NC(=O)c2cnc3n2CCCC3)cc1S(=O)(=O)Nc1c(C)cccc1C` [compound 1404, N-(5-(N-(2,6-dimethylphenyl)sulfamoyl)-6-methoxypyridin-3-yl)-5,6,7,8-tetrahydroimidazo[1,2-a]pyridine-3-carboxamide], for which the EC50 is 20 to 100 µM and the Emax was > 300%.

Take `COc1ncc(NC(=O)c2csc(-c3ccccc3)n2)cc1S(=O)(=O)Nc1cccc(C#N)c1C` [compound 1406, N-(5-(N-(3-cyano-2-methylphenyl)sulfamoyl)-6-methoxypyridin-3-yl)-2-phenylthiazole-4-carboxamide]: the EC50 is < 10 µM and the Emax lay in the range of 119 to 159%.

With `COc1ncc(NC(=O)c2csc(-c3ccc(F)cc3)n2)cc1S(=O)(=O)Nc1c(C)cccc1C` [compound 1413, N-(5-(N-(2,6-dimethylphenyl)sulfamoyl)-6-methoxypyridin-3-yl)-2-(4-fluorophenyl)thiazole-4-carboxamide], the EC50 is < 10 µM and the Emax lay in the range of 119 to 159%.

`COc1ncc(NC(=O)c2csc(-c3ccccc3)n2)cc1S(=O)(=O)Nc1c(C)nn(C)c1C` [compound 1417, N-(6-methoxy-5-(N-(1,3,5-trimethyl-1H-pyrazol-4-yl)sulfamoyl)pyridin-3-yl)-2-phenylthiazole-4-carboxamide]: the EC50 lay in the range of 20 to 100 µM and the Emax fell in the range of 200 to 300%.

With `CCc1cccc(CC)c1NS(=O)(=O)c1cc(NC(=O)c2csc(-c3ccccc3)n2)cnc1OC` [compound 1418, N-(5-(N-(2,6-diethylphenyl)sulfamoyl)-6-methoxypyridin-3-yl)-2-phenylthiazole-4-carboxamide], the EC50 is < 10 µM and the Emax was in the range of 119 to 159%.

With `Cc1c[n+]([O-])c(NC(=O)c2ncc(-c3ccccc3)o2)cc1S(=O)(=O)Nc1ccc(Cl)cc1` [compound 1420, 4-(N-(4-chlorophenyl)sulfamoyl)-5-methyl-2-(5-phenyloxazole-2-carboxamido) pyridine 1-oxide], the EC50 was 10 to 20 µM and the Emax lay in the range of 119 to 159%.

As for `COc1ncc(NC(=O)c2noc3ccccc23)cc1S(=O)(=O)Nc1c(C)cccc1C` [compound 1421, N-(5-(N-(2,6-dimethylphenyl)sulfamoyl)-6-methoxypyridin-3-yl) benzo[d]isoxazole-3-carboxamide], the EC50 was < 10 µM and the Emax was 200 to 300%.

For `COc1ncc(NC(=O)c2nn(C)c3ccccc23)cc1S(=O)(=O)Nc1c(C)cccc1C` [compound 1423, N-(5-(N-(2,6-dimethylphenyl)sulfamoyl)-6-methoxypyridin-3-yl)-1-methyl-1H-indazole-3-carboxamide], the EC50 was < 10 µM and the Emax fell in the range of 160 to 199%.

For `COc1ncc(NC(=O)c2nn(C)c3c2CCCC3)cc1S(=O)(=O)Nc1c(C)cccc1C` [compound 1424, N-(5-(N-(2,6-dimethylphenyl)sulfamoyl)-6-methoxypyridin-3-yl)-1-methyl-4,5,6,7-tetrahydro-1H-indazole-3-carboxamide], the EC50 was in the range of 10 to 20 µM and the Emax was in the range of 200 to 300%.

For `COc1ncc(NC(=O)c2csc3c2CCC3)cc1S(=O)(=O)Nc1c(C)cccc1C` [compound 1425, N-(5-(N-(2,6-dimethylphenyl)sulfamoyl)-6-methoxypyridin-3-yl)-5,6-dihydro-4H-cyclopenta[b]thiophene-3-carboxamide], the EC50 was < 10 µM and the Emax was 160 to 199%.

`COc1ncc(NC(=O)c2cnc(-c3ccccc3)[nH]2)cc1S(=O)(=O)Nc1ccc(Cl)cc1` [compound 1481, N-(5-(N-(4-chlorophenyl)sulfamoyl)-6-methoxypyridin-3-yl)-2-phenyl-1H-imidazole-5-carboxamide]: the EC50 lay in the range of 10 to 20 µM and the Emax lay in the range of 160 to 199%.

In the case of `COc1cccc(C)c1NS(=O)(=O)c1cc(NC(=O)c2coc(-c3ccccc3)n2)cnc1OC` [compound 1484, N-(6-methoxy-5-(N-(2-methoxy-6-methylphenyl)sulfamoyl)pyridin-3-yl)-2-phenyloxazole-4-carboxamide], the half-maximal effective concentration (EC50) is < 10 µM and the Emax is 160 to 199%.

For orientation: EC50 means the concentration that produces a half-maximal response. By Emax is commonly meant the size of the effect at its maximum, as opposed to the concentration needed.
